Reference: patent publication US20250205199A1, “5-METHOXY-N,N-[…][…] THE TREATMENT OF SOCIAL/EMOTIONAL […] DETACHMENT” (GH RESEARCH IRELAND LIMITED, priority 2022, published 2025)

How the values were obtained:
[1] = tested on: patients with treatment-resistant major depressive disorder (TRD); assay: Phase 1/2 clinical trial of inhaled 5-MeO-DMT in patients with TRD
Procedure: Patients were assigned to different groups. In the context of the present invention, the group who received a single, 12 mg dose and the group who underwent an intra-day individualized dosing regimen (IDR) that allowed for multiple, escalating doses (6 mg, 12 mg and 18 mg) within a single day, driven by the intensity of the patient-reported psychedelic experience are of interest.
The data gathered include the assessment of the treated patients against several scales including the Montgomery-Åsberg Depression Rating Scale (MADRS) and the Brief Psychiatric Rating Scale (BPRS).
This trial was designed in two parts. Part A was an open-label, single-arm, single-dose Phase 1 trial with two dose levels (12 mg (n=4) and 18 mg (n=4)). […] The primary endpoint of Part B was to assess the effects on the severity of depression, as assessed by the proportion of patients in remission on day seven after dosing, defined as a MADRS total score of less than or equal to 10.

[2] = Pharmacokinetics of 5-MeO-DMT and bufotenine after inhalation; format: in vivo, human; conditions: for Plasma concentration as % of Cmax: whole dose range tested (6 mg, 12 mg, 18 mg)
Procedure: This applies over the whole dose range tested (6 mg, 12 mg, 18 mg). […] Uptitration as disclosed herein will not lead to accumulation and thus not to higher plasma concentrations, for instance, 10 minutes, 2 hours, or 3 hours after administration.
Blood samples were obtained at 1; 2; 4; 7; 10; 15; 20; 30; 45 min and 1; 1.5; 2; 3; 4 hours after administration.
PK parameters were generated by algebraic analysis of the concentration versus time plots for each individual. The analysis was carried out using the software Phoenix WinNonlin 6.3.

[3] = 12 mg n=4, 2 hours after dose, baseline 16

## COc1ccc2[nH]cc(CCN(C)C)c2c1 [5-MeO-DMT]
[1]; 12 mg n=4, 2 hours after dose, baseline 8
  MADRS Suicidal Thoughts improvement: 5 points
[1]; 12 mg n=4, 2 hours after dose, baseline 13
  MADRS Inner Tension improvement: 11
[1]; [3]
  MADRS Concentration Difficulties improvement: 9
  MADRS Inability to Feel improvement: 7 points
  MADRS Lassitude improvement: 6
  MADRS Pessimistic Thoughts improvement: 8
[1]; 12 mg n=4, 3 hours after dose, baseline 11
  BPRS Blunted Affect improvement: 3 points
[1]; 12 mg n=4, 3 hours after dose, baseline 13
  BPRS Emotional Withdrawal improvement: 2 points
[1]; 12 mg n=4, 3 hours after dose, baseline 14
  BPRS Tension improvement: 5
[1]; 12 mg n=4, 3 hours after dose, baseline 18
  BPRS Guilt Feelings improvement: 9
[1]; 12 mg n=4, 3 hours after dose, baseline 25
  BPRS Anxiety improvement: 14
[1]; 12 mg n=4, day 1, baseline 13
  MADRS Inner Tension improvement: 10
[1]; 12 mg n=4, day 1, baseline 14
  BPRS Tension improvement: 8
[1]; 12 mg n=4, day 1, baseline 16
  MADRS Concentration Difficulties improvement: 14
  MADRS Lassitude improvement: 16
  MADRS Pessimistic Thoughts improvement: 9
[1]; 12 mg n=4, day 1, baseline 18
  BPRS Guilt Feelings improvement: 13
[1]; 12 mg n=4, day 1, baseline 25
  BPRS Anxiety improvement: 19
[1]; 12 mg n=4, day 7, baseline 12
  MADRS Reduced Sleep percentage improvement: 50.00%
[1]; 12 mg n=4, day 7, baseline 13
  MADRS Inner Tension improvement: 8
[1]; 12 mg n=4, day 7, baseline 14
  BPRS Tension improvement: 8
[1]; 12 mg n=4, day 7, baseline 16
  MADRS Concentration Difficulties improvement: 13
  MADRS Lassitude improvement: 13
  MADRS Pessimistic Thoughts improvement: 8
[1]; 12 mg n=4, day 7, baseline 18
  BPRS Guilt Feelings improvement: 13
[1]; 12 mg n=4, day 7, baseline 25
  BPRS Anxiety improvement: 19
[1]; IDR n=8, 2 hours after last dose, baseline 11
  MADRS Suicidal Thoughts improvement: 8 points
[1]; IDR n=8, 2 hours after last dose, baseline 26
  MADRS Inner Tension improvement: 15
[1]; IDR n=8, 2 hours after last dose, baseline 27
  MADRS Lassitude improvement: 17
[1]; IDR n=8, 2 hours after last dose, baseline 28
  MADRS Pessimistic Thoughts improvement: 21
[1]; IDR n=8, 2 hours after last dose, baseline 30
  MADRS Concentration Difficulties improvement: 19
[1]; IDR n=8, 2 hours after last dose, baseline 36
  MADRS Inability to Feel improvement: 24 points
[1]; IDR n=8, 3 hours after last dose, baseline 13
  BPRS Emotional Withdrawal improvement: 5 points
[1]; IDR n=8, 3 hours after last dose, baseline 15
  BPRS Blunted Affect improvement: 4 points
[1]; IDR n=8, 3 hours after last dose, baseline 16
  BPRS Tension improvement: 5
[1]; IDR n=8, 3 hours after last dose, baseline 34
  BPRS Guilt Feelings improvement: 20
[1]; IDR n=8, 3 hours after last dose, baseline 37
  BPRS Anxiety improvement: 18
[1]; IDR n=8, day 1, baseline 16
  BPRS Tension improvement: 5
[1]; IDR n=8, day 1, baseline 25
  MADRS Reduced Sleep percentage improvement: 52.00%
[1]; IDR n=8, day 1, baseline 26
  MADRS Inner Tension improvement: 20
[1]; IDR n=8, day 1, baseline 27
  MADRS Lassitude improvement: 22
[1]; IDR n=8, day 1, baseline 28
  MADRS Pessimistic Thoughts improvement: 24
[1]; IDR n=8, day 1, baseline 30
  MADRS Concentration Difficulties improvement: 29
[1]; IDR n=8, day 1, baseline 34
  BPRS Guilt Feelings improvement: 23
[1]; IDR n=8, day 1, baseline 37
  BPRS Anxiety improvement: 21
[1]; IDR n=8, day 7, baseline 16
  BPRS Tension improvement: 6
[1]; IDR n=8, day 7, baseline 25
  MADRS Reduced Sleep percentage improvement: 64.00%
[1]; IDR n=8, day 7, baseline 26
  MADRS Inner Tension improvement: 14
[1]; IDR n=8, day 7, baseline 27
  MADRS Lassitude improvement: 24
[1]; IDR n=8, day 7, baseline 28
  MADRS Pessimistic Thoughts improvement: 25
[1]; IDR n=8, day 7, baseline 30
  MADRS Concentration Difficulties improvement: 21
[1]; IDR n=8, day 7, baseline 34
  BPRS Guilt Feelings improvement: 24
[1]; IDR n=8, day 7, baseline 37
  BPRS Anxiety improvement: 20
[1]; Part A
  SAEs: No SAEs
[1]; Part A, 12 mg n=4, day seven
  Patients with MADRS remission (total score <=10): 50%
[1]; Part A, 12 mg, day seven
  Mean MADRS change from baseline: −21.0
  Mean MADRS change from baseline, percent: −65%
[1]; Part A, 18 mg n=4, day seven
  Patients with MADRS remission (total score <=10): 25%
[1]; Part A, 18 mg, day seven
  Mean MADRS change from baseline, percent: −41%
[2]; 10 minutes after inhalation
  Plasma concentration as % of Cmax: ≤ 10%
[2]; 2 hours after inhalation
  Plasma concentration as % of Cmax: ≤ 1%
[2]; 3 hours after inhalation, whole dose range tested
  Detectability in the plasma: no longer detectable
[2]; dosing schemes relying on uptitration
  Pharmacokinetic measurements under uptitration dosing schemes versus single doses: Substantially similar results
